The numbers were not newly measured in patent publication US20150237898A1, “STEVIOSIDE BLENDS” (Cargill, Incorporated, priority 2012, published 2015), which cites them from elsewhere.

“Also recorded” adds a separate entry of the source.

The conditions of this data set: literature.

Take `C=C1C[C@@]23CC[C@H]4[C@@](C)(CCC[C@@]4(C)C(=O)O[C@@H]4O[C@H](CO)[C@@H](O)[C@H](O)[C@H]4O)[C@@H]2CC[C@]1(O[C@@H]1O[C@H](CO)[C@@H](O)[C@H](O[C@@H]2O[C@H](CO)[C@@H](O)[C@H](O)[C@H]2O)[C@H]1O[C@@H]1O[C@H](CO)[C@@H](O)[C@H](O)[C@H]1O)C3` [Reb A, rebaudioside A]: the “sweetening power / sweetness compared with other glycosides” value is “highest sweetening power of all the glycosides; also recorded: more potent and more pleasant tasting than stevioside”.

For `C=C1C[C@@]23CC[C@H]4[C@@](C)(CCC[C@@]4(C)C(=O)O[C@@H]4O[C@H](CO)[C@@H](O)[C@H](O)[C@H]4O)[C@@H]2CC[C@]1(O[C@@H]1O[C@H](CO)[C@@H](O)[C@H](O)[C@H]1O[C@@H]1O[C@H](CO)[C@@H](O)[C@H](O)[C@H]1O)C3` [stevioside], the “bitterness compared with other glycosides” value is “much more bitter than Reb A and other glycosides”; the “sweetening power / sweetness compared with other glycosides” value is on record as “much less sweet”.
